Measurements as given in ChEMBL document CHEMBL3046300, “Design, synthesis, and biological evaluation of sulfonic acid ester and benzenesulfonamide derivatives as potential CETP inhibitors” (Med Chem Res, 2012).

Key:
[1] = biological target: T1, Cholesteryl ester transfer protein (Oryctolagus cuniculus, UniProt P22687); experiment: Inhibition of Oryctolagus cuniculus (rabbit) CETP-mediated cholesteryl ester transfer after 1 hr by fluorescence assay
T1 sequence (P22687 whole entry): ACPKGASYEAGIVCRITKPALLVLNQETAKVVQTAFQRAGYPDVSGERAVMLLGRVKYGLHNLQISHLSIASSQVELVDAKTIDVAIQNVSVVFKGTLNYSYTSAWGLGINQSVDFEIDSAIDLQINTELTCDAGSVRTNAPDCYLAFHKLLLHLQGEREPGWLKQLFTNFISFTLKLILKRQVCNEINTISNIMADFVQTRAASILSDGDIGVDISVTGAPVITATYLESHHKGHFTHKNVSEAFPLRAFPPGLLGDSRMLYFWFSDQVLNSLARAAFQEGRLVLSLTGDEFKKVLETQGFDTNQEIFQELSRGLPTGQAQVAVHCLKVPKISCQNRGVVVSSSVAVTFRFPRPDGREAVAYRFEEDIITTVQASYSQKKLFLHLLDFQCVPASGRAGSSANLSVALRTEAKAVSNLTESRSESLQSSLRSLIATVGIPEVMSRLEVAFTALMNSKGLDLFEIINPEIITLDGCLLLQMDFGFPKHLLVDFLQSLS

[2] = biological target: T2, Cholesteryl ester transfer protein (Oryctolagus cuniculus) (UniProt P22687); experiment: Inhibition of Oryctolagus cuniculus (rabbit) CETP-mediated cholesteryl ester transfer at 10 uM after 1 hr by fluorescence assay
T2 sequence (whole entry): T1 sequence (P22687 whole entry)

Row | Compound | IC50 [1] [µM] | inhibition [2] [%]
1 | Cc1ccc(S(=O)(=O)N(c2ccc(OCc3ccc(Cl)cc3)cc2)S(=O)(=O)c2ccc(C)cc2)cc1 | 13.2 | 37.5
2 | COc1cccc(COc2ccc(N(S(=O)(=O)c3ccc(C)cc3)S(=O)(=O)c3ccc(C)cc3)cc2)c1 | 3.9 | 65.3
3 | Cc1ccc(S(=O)(=O)Nc2ccc(OCc3cccc(Cl)c3)cc2)cc1 | – | 29.6
4 | Cc1ccc(S(=O)(=O)Nc2ccc(OCc3ccc(C(F)(F)F)cc3)cc2)cc1 | – | 9.9
5 | Cc1ccc(S(=O)(=O)Nc2ccc(OCc3ccc(Cl)cc3)cc2)cc1 | – | 23
6 | Cc1ccc(CN(Cc2ccc(C)cc2)c2ccc(OS(=O)(=O)c3ccc(C)cc3)cc2)cc1 | – | 22.3
7 | COc1cccc(COc2ccc(NS(=O)(=O)c3ccc(C)cc3)cc2)c1 | – | 22.8
8 | Cc1ccc(S(=O)(=O)Oc2ccc(N(Cc3ccc([N+](=O)[O-])cc3)Cc3ccc([N+](=O)[O-])cc3)cc2)cc1 | – | 9.3
9 | Cc1ccc(S(=O)(=O)Oc2ccc(N(Cc3ccc(Br)cc3)Cc3ccc(Br)cc3)cc2)cc1 | – | 17.5
10 | Cc1ccc(S(=O)(=O)Nc2ccc(OCc3ccc(Br)cc3)cc2)cc1 | – | 10.2
11 | Cc1ccc(S(=O)(=O)Oc2ccc(NCc3cccc([N+](=O)[O-])c3)cc2)cc1 | – | 29.9
12 | Cc1ccc(S(=O)(=O)Oc2ccc(N(Cc3cccc(C)c3)Cc3cccc(C)c3)cc2)cc1 | – | 29
13 | Cc1ccc(S(=O)(=O)Oc2ccc(N(Cc3cccc(Br)c3)Cc3cccc(Br)c3)cc2)cc1 | – | 23.1
14 | Cc1ccc(COc2ccc(NS(=O)(=O)c3ccc(C)cc3)cc2)cc1 | – | 0
15 | Cc1ccc(S(=O)(=O)N(c2ccc(OCc3cccc(C(F)(F)F)c3)cc2)S(=O)(=O)c2ccc(C)cc2)cc1 | 11.1 | 39
16 | Cc1ccc(S(=O)(=O)Oc2ccc(NCc3cccc(C)c3)cc2)cc1 | 30.1 | 31.3
17 | Cc1ccc(S(=O)(=O)Nc2ccc(OCc3ccc([N+](=O)[O-])cc3)cc2)cc1 | – | 15.5
18 | Cc1ccc(S(=O)(=O)Oc2ccc(N(Cc3cccc([N+](=O)[O-])c3)Cc3cccc([N+](=O)[O-])c3)cc2)cc1 | 29.7 | 31.4
19 | Cc1ccc(S(=O)(=O)N(c2ccc(OCc3cccc(C)c3)cc2)S(=O)(=O)c2ccc(C)cc2)cc1 | 3.4 | 66.9
20 | Cc1ccc(S(=O)(=O)Oc2ccc(N(Cc3cccc(C(F)(F)F)c3)Cc3cccc(C(F)(F)F)c3)cc2)cc1 | – | 24.7
21 | Cc1ccc(S(=O)(=O)Oc2ccc(N(Cc3ccc(Cl)cc3)Cc3ccc(Cl)cc3)cc2)cc1 | – | 24.9
22 | Cc1ccc(S(=O)(=O)Oc2ccc(N(Cc3cccc(Cl)c3)Cc3cccc(Cl)c3)cc2)cc1 | 28.5 | 31.9
23 | Cc1ccc(S(=O)(=O)N(c2ccc(OCc3cccc(Cl)c3)cc2)S(=O)(=O)c2ccc(C)cc2)cc1 | 10.5 | 42.6
24 | Cc1ccc(S(=O)(=O)Oc2ccc(NCc3cccc(Br)c3)cc2)cc1 | – | 16.1
